Data: patent US20090209525A1, “ENABLING METHODS TO IDENTIFY ALLOSTERIC MODULATORS OF RECEPTOR ACTIVITY” (priority 2006, published 2009)
Numbering of substitutions follows the chain as printed. pEC50: −log10 of the molar value. Like-named read-outs stand apart in the source and are kept apart here.

Key:
[1] = target: T1, rat M1 wild-type receptors (Rattus norvegicus, UniProt P08482); experiment: R-SAT functional assay, wild-type receptor; format: cell-based
T1 construct: expressed in transfected cells
T1 sequence (P08482 1-460): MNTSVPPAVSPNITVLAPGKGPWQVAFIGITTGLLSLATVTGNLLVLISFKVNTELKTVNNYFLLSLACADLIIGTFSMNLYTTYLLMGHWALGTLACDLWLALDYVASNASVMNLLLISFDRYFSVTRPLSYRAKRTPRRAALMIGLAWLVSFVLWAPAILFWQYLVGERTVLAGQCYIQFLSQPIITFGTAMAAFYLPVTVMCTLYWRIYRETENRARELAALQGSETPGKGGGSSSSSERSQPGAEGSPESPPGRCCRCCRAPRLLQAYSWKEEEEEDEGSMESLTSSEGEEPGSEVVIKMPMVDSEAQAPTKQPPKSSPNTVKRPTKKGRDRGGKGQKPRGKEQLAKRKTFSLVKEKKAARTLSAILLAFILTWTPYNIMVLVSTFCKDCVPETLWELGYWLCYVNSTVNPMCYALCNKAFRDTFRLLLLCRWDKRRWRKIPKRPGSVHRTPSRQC
Description: (§1) Cells are co-transfected for 18 h with DMEM containing 0.08 micrograms/ml of an expression vector for the expression of the mutant receptor and 0.3 micrograms/ml pSI-Bgal (Promega, Madison Wis.), and 0.5% v/v Polyfect (Qiagen, Valencia Calif.), as recommended by the manufacturer. On day three, the medium is replaced with DMEM containing 1% PSG, 0.5% calf serum, 2% cyto-sf3 (Kemp Biotechnologies, Frederick, Md.), and varying concentrations of the compounds to be tested. Cells are grown in a humidified atmosphere with 5% ambient CO2 for 5 days. The media is removed from the plates, and beta-galactosidase activity is measured by the addition of o-nitrophenyl -d-galactopyranoside in phosphate-buffered saline with 5% Nonidet P-40. […] The following equation is fitted to the data using GraphPad Prism software (San Diego, Calif.):
(§2) NIH-3T3 cells were grown in 96-well tissue culture plates to 70 to 80% confluence in Dulbecco's modified essential media (DMEM) supplemented with 100 units/ml penicillin, 100 micrograms/ml streptomycin, 0.3 mg/ml L-glutamine (1% PSG, GIBCO) and 10% calf serum (Sigma-Aldrich). Cells were transfected for 18 h with DMEM containing 0.08 micrograms/ml receptor DNA and 0.3 micrograms/ml pSI-Bgal (Promega, Madison Wis.), 0.5% v/v Polyfect (Qiagen, Valencia Calif.). Medium was replaced with DMEM containing 1% PSG, 0.5% calf serum, 2% cyto-sf3 (Kemp Biotechnologies, Frederick, Md.), and varying concentrations of ligand. […] Cells were grown in a humidified atmosphere with 5% ambient CO2 for 5 days. Medium was removed from the plates, and beta-galactosidase activity was measured by the addition of o-nitrophenyl -d-galactopyranoside in phosphate-buffered saline with 5% Nonidet P-40.
(§3) Receptor Selection and Amplification (R-SAT™) Assays: R-SAT™ functional assays were carried out as follows. NIH-3T3 cells were grown in 96-well tissue culture plates to 70 to 80% confluence in Dulbecco's modified essential media (DMEM) supplemented with 100 units/ml penicillin, 100 micrograms/ml streptomycin, 0.3 mg/ml L-glutamine (1% PSG, GIBCO) and 10% calf serum (Sigma-Aldrich). Cells were transfected for 18 h with DMEM containing 0.08 micrograms/ml receptor DNA and 0.3 micrograms/ml pSI-Bgal (Promega, Madison Wis.), 0.5% v/v Polyfect (Qiagen, Valencia Calif.). The transfected cells were frozen away. Cells were thawed and added to 96 well plates with DMEM containing 1% PSG, 0.5% calf serum, 2% cyto-sf3 (Kemp Biotechnologies, Frederick, Md.), and varying concentrations of ligand.
(§4) In an effort to further characterize monoamine modulators, we used a panel of mutant muscarininc M1 receptors to analyze the activity and potency of orthosteric modulators and various allosteric modulators at those receptors.

rat M1 W101A receptor = target: T2, rat M1 W101A receptor (Rattus norvegicus, UniProt P08482, W101A); experiment: R-SAT functional assay, W101A mutant; format: cell-based; conditions: M1 W101A
T2 construct: expressed in transfected cells
T2 sequence (P08482 1-460 W101A): T1 sequence (P08482 1-460) with W101A
Description: as §1, §2, §3, §4

rat M1 Y381A receptor = target: T3, rat M1 Y381A receptor (Rattus norvegicus, UniProt P08482, Y381A); experiment: R-SAT functional assay, Y381A mutant; format: cell-based
T3 construct: expressed in transfected cells; host or cells: NIH-3T3
T3 sequence (P08482 1-460 Y381A): T1 sequence (P08482 1-460) with Y381A
Description: as §1, §2, §3, §4

M1 W101A receptor [2] = target: T4, M1 W101A receptor (Rattus norvegicus, UniProt P08482, W101A); experiment: R-SAT HTS on M1 W101A receptor; format: cell-based; conditions: compound at 3 μM, triplicate retest, activity over basal cellular response
T4 construct: expressed in transfected cells
T4 sequence (P08482 1-460 W101A): T1 sequence (P08482 1-460) with W101A
Description: as §2
Cells were contacted with over 280,000 compounds at a concentration of 3 μM.

M1 W101A receptor [3] = target: T4, M1 W101A receptor; experiment: R-SAT HTS on M1 W101A receptor; format: cell-based; conditions: compound at 300 nM, triplicate retest, activity over basal cellular response
M1 Y381 mutant receptor = target: T5, M1 Y381 mutant receptor (Rattus norvegicus, UniProt P08482, Y381A); conditions: result in words; FIGS. 8A-8C
T5 sequence (P08482 1-460 Y381A): T1 sequence (P08482 1-460) with Y381A

M1 Y381A receptor = target: T6, M1 Y381A receptor (Rattus norvegicus, UniProt P08482, Y381A); experiment: R-SAT antagonism of muscarinic agonists, Y381A; format: cell-based; conditions: M1 YS81A as printed; maximal inhibition of NDMC (3 μM) response
T6 construct: expressed in transfected cells; host or cells: NIH-3T3
T6 sequence (P08482 1-460 Y381A): T1 sequence (P08482 1-460) with Y381A
Description: as §3

[4] = Table 4, M1 wild type, maximum response relative to xanomeline
[5] = Table 10, M1 Wild-Type, maximum response relative to carbachol
[6] = Table 4, maximum response relative to xanomeline
[7] = Table 4, M1 Y381A, maximum response relative to xanomeline
[8] = Table 10, M1 Y381A, maximum response relative to AC-42

Row | Compound | 3 μM Avg. (M1 W101A receptor [2]) | 300 nM Avg (M1 W101A receptor [3]) | other results
1 | O=C1CCCN1CC#CCN1CCCC1 [Oxotremorine] |  |  | % Eff [1, 4]: 91%; % Eff [1, 5]: 91%; pEC50 ([1]; pEC50, Table 4, M1 wild type): 7.10; pEC50 ([1]; pEC50, Table 10, M1 Wild-Type, NA = non-active): 7.50; % Eff (rat M1 W101A receptor; [6]): 87%; % Eff (rat M1 W101A receptor; Table 10, maximum response relative to AC-42): 120%; pEC50 (rat M1 W101A receptor; pEC50, Table 4): 5.50; pEC50 (rat M1 W101A receptor; pEC50, Table 10): 5.60; pEC50 (rat M1 Y381A receptor): 5.40; % Eff (rat M1 Y381A receptor; [7]): 8%; % Eff (rat M1 Y381A receptor; [8]): 23%
2 | CCCOC1CCN(C[C@@H](C)Cn2c(=O)ccc3ccccc32)CC1.O=C(O)C(=O)O | 4.37 | 4.29 | 
3 | CCCCCCOc1nsnc1C1=CCCN(C)C1 [Xanomeline] |  |  | % Eff [1, 4]: 100%; % Eff (rat M1 W101A receptor; [6]): 106%; % Eff (rat M1 Y381A receptor; [7]): 100%
4 | C[N+]1(C)[C@@H]2CC(OC(=O)[C@H](CO)c3ccccc3)C[C@H]1[C@@H]1O[C@@H]12 (some centres unmarked) [^3H-NMS, 1-[N-methyl-^3H]Scopolamine methyl chloride] |  |  | binding of ^3H-NMS to receptor (M1 Y381 mutant receptor): not to the Y381 mutant receptor
5 | CCCOC1CCN(CCCn2c(=O)ccc3ccccc32)CC1 | 4.65 | 3.90 | 
6 | CCCCC1CCN(CCCN2C(=O)COc3ccccc32)CC1.O=C(O)C(=O)O | 3.23 | 3.86 | 
7 | CCCOC1CCN(C[C@@H](C)CN2C(=O)COc3ccccc32)CC1 | 4.51 | 4.15 | 
8 | C[N+]1(C)[C@@H]2C[C@@H](OC(=O)[C@H](CO)c3ccccc3)C[C@H]1[C@@H]1O[C@@H]12 [NMS] |  |  | inhib (M1 Y381A receptor): 36%
9 | CC(C)COc1ccc(CC(=O)N(Cc2ccc(F)cc2)C2CCN(CCCN3C(=O)OC[C@@H]3C(C)C)CC2)cc1.O=C(O)C(=O)O | 3.18 | 2.58 | 
10 | CCCOC1CCN(C[C@@H](C)CN2C(=O)COc3ccccc32)CC1.O=C(O)C(=O)O | 4.63 | 4.14 | 
11 | CCCCC1CCN(CCCN2C(=O)CCc3cc(OC)ccc32)CC1.O=C(O)C(=O)O | 4.19 | 3.32 | 
12 | CN1CCN(C2=Nc3ccccc3Oc3ccc(Cl)cc32)CC1.O=C(O)CCC(=O)O [Loxapine] |  |  | % Eff [1, 5]: 3%; EC50 (rat M1 Y381A receptor; Table 10, M1 Y381A, NA = non-active, read-out: pEC50 (converted)): 1260 nM; % Eff (rat M1 Y381A receptor; [8]): 165%
13 | CCCCC1CCN(C[C@@H](C)Cn2c(=O)ccc3ccccc32)CC1.O=C(O)C(O)C(O)C(=O)O | 4.50 | 4.34 | 
14 | CCCCC1CCN(CCCn2c(=O)oc3c(Cl)cc(Cl)c(Cl)c32)CC1.O=C(O)C(=O)O | 2.60 | 2.36 | 

Second part, led by results:

Row | 3 μM Avg. (M1 W101A receptor [2]) | 300 nM Avg (M1 W101A receptor [3]) | Compound | other results
15 | 3.74 | 3.93 | CCCCC1CCN(C[C@@H](C)CN2C(=O)CCc3ccccc32)CC1.O=C(O)C(=O)O | 
16 | 4.44 | 4.11 | CCCOC1CCN(C[C@@H](C)CN2C(=O)CCc3ccccc32)CC1.O=C(O)C(=O)O | 
17 | 3.67 | 3.26 | CCCCC1CCN(CCn2c(=O)[nH]c3ccccc32)CC1 | 
18 | 2.41 | 2.86 | CCCCC1CCN(CCCN2C(=O)COc3ccc(C(C)=O)cc32)CC1 | 
19 | 3.35 | 2.87 | COCCC1CCN(CCCn2c(=O)sc3ccccc32)CC1.O=C(O)C(=O)O | 
20 | 3.85 | 3.81 | CCCCC1CCN(CCCn2c(=O)ccc3cc(F)ccc32)CC1 | 
21 | 2.83 | 2.70 | CCOCCC1CCN(CCCn2c(=O)[nH]c3ccccc32)CC1.O=C(O)C(F)(F)F | 
22 | 4.17 | 3.81 | CCCC=C1CCN(C[C@@H](C)CN2C(=O)COc3ccc(F)cc32)CC1.O=C(O)C(=O)O | 
23 | 3.55 | 4.16 | CCCCC1CCN(C[C@@H](C)CN2C(=O)COc3ccccc32)CC1.O=C(O)C(=O)O | 
24 | 3.60 | 3.13 | CCCCC1CCN(CCCN2C(=O)CCc3ccccc32)CC1.O=C(O)C(=O)O | 
25 | 3.34 | 3.30 | CCCCC1CCN(CCCN2C(=O)CSc3ccccc32)CC1.O=C(O)C(=O)O | 
